The test system of this test is SARS-CoV-2 spike protein active trimer. The class given is binding.

Non-standard residues stand in square brackets, D forms with d. Residues, ends and D or L forms follow the SMILES beside them. *: point of attachment. Biotin = O=C1N[C@H]2[C@H](CS[C@H]2CCCCC(=O)*)N1; Phe(3,5-F2) = N[C@@H](Cc1cc(F)cc(F)c1)C(=O)O; hCit = NC(=O)NCCCC[C@H](N)C(=O)O; Aad = N[C@@H](CCCC(=O)O)C(=O)O; dPhg = N[C@@H](C(=O)O)c1ccccc1; Nva = CCC[C@H](N)C(=O)O; AEEA = NCCOCCOCC(=O)O; Ac3c = NC1(C(=O)O)CC1

On to `COc1ccc(C[C@H](NC(=O)[C@H](N)Cc2c[nH]cn2)C(=O)N[C@@H](CCCNC(=N)N)C(=O)N[C@@H](C(=O)N[C@H](CCC(=O)O)C(=O)N[C@H](Cc2c[nH]cn2)C(=O)N[C@H](CCSC)C(=O)N[C@@H](CC(C)C)C(=O)NCCOCCOCC(=O)NCCOCCOCC(=O)N[C@@H](CCCCNC(=O)CCCC[C@@H]2SC[C@@H]3NC(=O)N[C@@H]32)C(N)=O)c2ccccc2)cc1` [L9-1] (H-[dH]Y(Me)R[dPhg][dE][dH][dM]L[AEEA][AEEA]K(Biotin)-NH2), for which the “binding to the S-protein active trimer (in words)” value (“binding … (in words)” for short) is on record as “bind reasonably well”.

As for `CCC[C@H](NC(=O)[C@H](CCCCNC(N)=O)NC(=O)[C@H](CCCNC(=N)N)NC(=O)[C@H](Cc1ccc(OC)cc1)NC(=O)[C@H](N)Cc1c[nH]cn1)C(=O)N[C@@H](CCCNC(=N)N)C(=O)N[C@@H](Cc1cc(F)cc(F)c1)C(=O)N[C@@H](Cc1ccccc1)C(=O)N[C@@H](CCCC(=O)O)C(=O)NCCOCCOCC(=O)NCCOCCOCC(=O)N[C@@H](CCCCNC(=O)CCCC[C@@H]1SC[C@@H]2NC(=O)N[C@@H]21)C(N)=O` [L10-2] (H-[dH]Y(Me)R[hCit][Nva]R[Phe(3,5-F2)]F[Aad][AEEA][AEEA]K(Biotin)-NH2), binding was characterised by a dissociation constant (Kd) of 25 nM; the “binding affinity, times higher than CoV6-2” value came to 8 times; the “binding affinity, times stronger than the 13-mer reference peptide” value was roughly 3 times; the “binding … (in words)” value was “bind reasonably well”.

Turning to `CCC[C@H](NC(=O)[C@H](CCC(N)=O)NC(=O)[C@@H](N)Cc1cc(F)cc(F)c1)C(=O)N[C@@H](CCCNC(=N)N)C(=O)N[C@H](CC(N)=O)C(=O)N[C@@H](CCC)C(=O)N[C@H](CC(N)=O)C(=O)NC1(C(=O)NCCOCCOCC(=O)NCCOCCOCC(=O)N[C@@H](CCCCNC(=O)CCCC[C@@H]2SC[C@@H]3NC(=O)N[C@@H]32)C(N)=O)CC1` [L10-3] (H-[Phe(3,5-F2)]Q[Nva]R[dN][Nva][dN][Ac3c][AEEA][AEEA]K(Biotin)-NH2), the “binding … (in words)” value is listed as “bind reasonably well”.

As to `CCC[C@H](NC(=O)[C@H](CCCCNC(N)=O)NC(=O)[C@H](Cc1ccc(OC)cc1)NC(=O)[C@H](N)Cc1c[nH]cn1)C(=O)N[C@@H](CCCNC(=N)N)C(=O)N[C@@H](Cc1cc(F)cc(F)c1)C(=O)N[C@@H](Cc1ccccc1)C(=O)N[C@@H](CCCC(=O)O)C(=O)NCCOCCOCC(=O)NCCOCCOCC(=O)N[C@@H](CCCCNC(=O)CCCC[C@@H]1SC[C@@H]2NC(=O)N[C@@H]21)C(N)=O` [L10-4] (H-[dH]Y(Me)[hCit][Nva]R[Phe(3,5-F2)]F[Aad][AEEA][AEEA]K(Biotin)-NH2), the “binding … (in words)” value is given as “bind reasonably well”.

Compound `CC(C)C[C@H](NC(=O)CNC(=O)[C@H](Cc1ccccc1)NC(=O)[C@@H](NC(=O)[C@@H](N)[C@@H](C)O)C(C)C)C(=O)N[C@@H](CC(N)=O)C(=O)N[C@H](C(=O)N[C@@H](Cc1c[nH]c2ccccc12)C(=O)N[C@@H](CCCCN)C(=O)N[C@@H](CCCNC(=N)N)C(=O)N[C@@H](Cc1ccc(O)cc1)C(=O)N[C@@H](CO)C(=O)N[C@@H](CCCCN)C(=O)NCCOCCOCC(=O)NCCOCCOCC(=O)N[C@@H](CCCCNC(=O)CCCC[C@@H]1SC[C@@H]2NC(=O)N[C@@H]21)C(N)=O)C(C)C` [Reference Peptide, reference compound] (H-TVFGLNVWKRYSK[AEEA][AEEA]K(Biotin)-NH2) displayed a Kd of 79 nM.

For the origin of these results see PMC10255569, “Discovery of Peptidic Ligands against the SARS-CoV-2 Spike Protein and Their Use in the Development of a Highly Sensitive Personal Use Colorimetric COVID-19 Biosensor” (ACS Sensors, 2023).
